This is an account of results in patent US9089499B2, “Para-coumaric acid or para-hydroxycinnamic acid derivatives and their use in cosmetic or dermatological compositions” (BASF Beauty Care Solutions France S.A.S., priority 2005, dated 2015).

One series deals with skin of rabbits. The series can be described thus: Primary skin irritation in rabbits. The series is classed as in vivo. The note with it: 10% in a 0.5% xanthan gel; undiluted, 0.5 ml to the skin of rabbits. The procedure: The preparations described above are applied without dilution at a dose of 0.5 ml to the skin of 3 rabbits according to the method recommended by the OCDE Directive concerning the study of “the acute irritant/corrosive effect on the skin”. The products are classified according to the criteria defined by the decree of 1/2/1982 published in the JORF of 21/02/82.

Another series deals with fungal tyrosinase. Description: In vitro test of inhibition of isolated fungal tyrosinase (L-dopa, dopachrome OD 490 nm). The series is classed as biochemical. Particulars: 490 nm.

On to `COc1cc(/C=C/C(=O)NCCc2ccc(O)c(O)c2)ccc1O` [Example 1, N-trans-feruloyldopamine], for which the “Primary skin irritation classification” value with skin of rabbits is “non-irritant to the skin”. Also, in the series with fungal tyrosinase (10^−4M), the “Inhibition of fungal tyrosinase, percentage of inhibition, Mean 10^−4M” value stood at 9.18%. Also, in the series with fungal tyrosinase (10^−5M), the “Inhibition of fungal tyrosinase, percentage of inhibition, Mean 10^−5M” value stood at 0%.
